Source: US20230303483A1, “USE OF STROBILURIN TYPE COMPOUNDS FOR COMBATING PHYTOPATHOGENIC FUNGI CONTAINING AN AMINO ACID SUBSTITUTION F129L IN THE MITOCHONDRIAL CYTOCHROME B PROTEIN CONFERRING RESISTANCE TO QO […]” (BASF SE, priority 2020, published 2023)

Legend:
[1] = system: Phakopsora pachyrhizi (strain containing the amino acid substitution F129L in the mitochondrial cytochrome b protein); assay: Use example 1: protective control of soybean rust on soybeans (PHAKPA P2), inoculation 2 days after spraying; format: in vivo; settings: % diseased leaf area on soybean, 16 ppm spray, inoculation 2 days after treatment, untreated controls usually >85 %
Method: (§1) The compound was dissolved in a mixture of acetone and/or dimethylsulfoxide and the wetting agent/emulsifier Wettol, which is based on ethoxylated alkylphenoles, in a ratio (volume) solvent-emulsifier of 99 to 1 to give a total volume of 5 ml. Subsequently, water was added to total volume of 100 ml. This stock solution was then diluted with the described solvent-emulsifier-water mixture to the final concentration given in the table below.
Use example 1. Protective control of soybean rust on soybeans caused by Phakopsora pachyrhizi (PHAKPA P2)
(§2) Leaves of potted soybean seedlings were sprayed to run-off with the previously described spray solution, containing the concentration of active ingredient or their mixture as described below. The plants were allowed to air-dry. The trial plants were cultivated for 2 days in a greenhouse chamber at 23-27° C. and a relative humidity between 60 and 80 %. Then the plants were inoculated with spores of Phakopsora pachyrhizi. The strain used contains the amino acid substitution F129L in the mitochondrial cytochrome b protein conferring resistance to Qo inhibitors. To ensure the success the artificial inoculation, the plants were transferred to a humid chamber with a relative humidity of about 95 % and 20 to 24° C. for 24 hr. The trial plants were cultivated for up to 14 days in a greenhouse chamber at 23 to 27° C. and a relative humidity between 60 and 80 %. The extent of fungal attack on the leaves was visually assessed as % diseased leaf area, the disease level of untreated controls was usually higher than 85 %.
(§3) All test results below are given for the control of phytopathogenic fungi containing the amino acid substitution F129L in the mitochondrial cytochrome b protein conferring resistance to Qo inhibitors.

[2] = system: Phakopsora pachyrhizi (strain containing the amino acid substitution F129L in the mitochondrial cytochrome b protein); assay: Use example 2: protective control of soybean rust on soybeans (PHAKPA P6), inoculation six days after spraying; format: in vivo; settings: % diseased leaf area on soybean, 16 ppm spray, inoculation six days after treatment, untreated controls usually >85 %
Method: as §1
Use example 2. Protective control of soybean rust on soybeans caused by Phakopsora pachyrhizi (PHAKPA P6)
as §2, with “active ingredient as described” for “active ingredient or their mixture as described”, “cultivated for six days in” for “cultivated for 2 days in”, “% and 23 to 27°” for “% and 20 to 24°”, “23 to 27° C. for” for “20 to 24° C. for”
as §3

SMILES | PHAKPA Disease level (%) P2 at 16 ppm [1] [%] | PHAKPA Disease level (%) P6 at 16 ppm [2] [%]
CO/N=C(/C(=O)OC)c1ccccc1CO/N=C(\C)C#Cc1ccccc1 [Example 1, Methyl (2E)-2-methoxyimino-2-[2-[[(E)-(1-methyl-3-phenyl-prop-2-ynylidene)amino]-oxymethyl]phenyl]acetate] | 38 | 58
CNC(=O)/C(=N/OC)c1ccccc1CO/N=C(\C)C#Cc1ccccc1 [Example 2, (2E)-2-Methoxyimino-N-methyl-2-[2-[[(E)-(1-methyl-3-phenyl-prop-2-ynylidene)-amino]oxymethyl]phenyl]acetamide] | 97 | 90
CO/N=C(/C(=O)OC)c1ccccc1CO/N=C(\C)C#Cc1ccc(Cl)cc1 [Example 3] | 70 | 70
CNC(=O)/C(=N/OC)c1ccccc1CO/N=C(\C)C#Cc1ccc(Cl)cc1 [Example 4] | 3 | 7
CNC(=O)/C(=N/OC)c1ccccc1CO/N=C(\C)C#Cc1cccc(Br)c1 [Example 5] | 1 | 7
CO/N=C(/C(=O)OC)c1ccccc1CO/N=C(\C)C#Cc1cccc(Br)c1 [Example 6] | 25 | 43
CO/N=C(/C(=O)OC)c1ccccc1CO/N=C(\C)C#Cc1ccc(F)cc1 [Example 7] | 30 | 50
CNC(=O)/C(=N/OC)c1ccccc1CO/N=C(\C)C#Cc1ccc(F)cc1 [Example 8] | 0 | 0.7
CNC(=O)/C(=N/OC)c1ccccc1CO/N=C(\C)C#Cc1ccccc1OC(F)(F)F [Example 9] | 0 | 5
CO/N=C(/C(=O)OC)c1ccccc1CO/N=C(\C)C#Cc1ccccc1OC(F)(F)F [Example 10] | 70 | 83
CNC(=O)/C(=N/OC)c1ccccc1CO/N=C(\C)C#Cc1ccc(OC(F)(F)F)cc1 [Example 11, (2E)-2-Methoxyimino-N-methyl-2-[2-[[(E)-[1-methyl-3-[4-(trifluoromethoxy)phenyl]-prop-2-ynylidene]amino]oxymethyl]phenyl]acetamide] | 53 | 67
CO/N=C(/C(=O)OC)c1ccccc1CO/N=C(\C)C#Cc1ccc(OC(F)(F)F)cc1 [Example 12, methyl(2E)-2-methoxyimino-2-[2-[[(E)-[1-methyl-3-[4-(trifluoromethoxy)phenyl]prop-2-ynylidene]amino]oxymethyl]phenyl]acetate] | 93 | 100
CNC(=O)/C(=N/OC)c1cccc(C)c1CO/N=C(\C)C#Cc1ccccc1 [Example 16, (2E)-2-Methoxyimino-N-methyl-2-[3-methyl-2-[[(E)-(1-methyl-3-phenyl-prop-2-ynylidene)amino]oxymethyl]phenyl]acetamide] | 0 | 0
CNC(=O)/C(=N/OC)c1cccc(C)c1CO/N=C(\C)C#Cc1ccc(C)cc1 [Example 19] | 0 | 0.6
CO/N=C(/C(=O)OC)c1cccc(C)c1CO/N=C(\C)C#Cc1ccc(C)cc1 [Example 20] | 2 | 1
CNC(=O)/C(=N/OC)c1cccc(C)c1CO/N=C(\C)C#Cc1ccc(OC(F)(F)F)cc1 [Example 21, (2E)-2-Methoxyimino-N-methyl-2-[3-methyl-2-[[(E)-[1-methyl-3-[4-(trifluoromethoxy)phenyl]prop-2-ynylidene]amino]oxymethyl]phenyl]acetamide] | 25 | 33
CO/N=C(/C(=O)OC)c1cccc(C)c1CO/N=C(\C)C#Cc1ccc(OC(F)(F)F)cc1 [Example 22, methyl (2E)-2-methoxyimino-2-[3-methyl-2-[[(E)-[1-methyl-3-[4-(trifluoromethoxy)-phenyl]prop-2-ynylidene]amino]oxymethyl]phenyl]acetate] | 93 | 97
CO/N=C(/C(=O)OC)c1cccc(C)c1CO/N=C(\C)C#Cc1ccccc1C [Example 23] | 0 | 0
CNC(=O)/C(=N/OC)c1cccc(C)c1CO/N=C(\C)C#Cc1ccccc1OC(F)(F)F [Example 25] | 0 | 0
CO/N=C(/C(=O)OC)c1cccc(C)c1CO/N=C(\C)C#Cc1ccccc1OC(F)(F)F [Example 26] | 2 | 6

SMILES | PHAKPA Disease level (%) P2 at 16 ppm [1] [%] | PHAKPA Disease level (%) P6 at 16 ppm [2] [%]
CNC(=O)/C(=N/OC)c1cccc(C)c1CO/N=C(\C)C#Cc1cccc(OC(F)(F)F)c1 [Example 27] | 0 | 0
CO/N=C(/C(=O)OC)c1cccc(C)c1CO/N=C(\C)C#Cc1cccc(OC(F)(F)F)c1 [Example 28] | 0 | 0
CNC(=O)/C(=N/OC)c1cccc(C)c1CO/N=C(\C)C#Cc1cccc(Br)c1 [Example 29] | 1 | 0
CO/N=C(/C(=O)OC)c1cccc(C)c1CO/N=C(\C)C#Cc1cccc(Br)c1 [Example 30] | 0 | 0
CNC(=O)/C(=N/OC)c1cccc(C)c1CO/N=C(\C)C#Cc1ccc(Cl)cc1 [Example 31] | 0 | 5
CO/N=C(/C(=O)OC)c1cccc(C)c1CO/N=C(\C)C#Cc1ccc(Cl)cc1 [Example 32] | 12 | 35
CNC(=O)/C(=N/OC)c1cccc(C)c1CO/N=C(\C)C#Cc1ccc(F)cc1 [Example 33] | 0 | 0
CO/N=C(/C(=O)OC)c1cccc(C)c1CO/N=C(\C)C#Cc1ccc(F)cc1 [Example 34] | 0 | 0
CO/N=C(/C(=O)OC)c1ccccc1CO/N=C(\C)C#Cc1cccc(F)c1 [Example 35] | 32 | 25
CO/N=C(/C(=O)OC)c1cccc(C)c1CO/N=C(\C)C#Cc1cccc(F)c1 [Example 36] | 4 | 9
CNC(=O)/C(=N/OC)c1ccccc1CO/N=C(\C)C#Cc1cccc(F)c1 [Example 37] | 6 | 8
CNC(=O)/C(=N/OC)c1cccc(C)c1CO/N=C(\C)C#Cc1cccc(F)c1 [Example 38] | 0 | 1
CO/N=C(/C(=O)OC)c1cccc(C)c1CO/N=C(\C)C#Cc1cccc(C(F)(F)F)c1 [Example 39] | 2 | 1
CNC(=O)/C(=N/OC)c1cccc(C)c1CO/N=C(\C)C#Cc1cccc(C(F)(F)F)c1 [Example 40] | 0 | 0
CO/N=C(/C(=O)OC)c1ccccc1CO/N=C(\C)C#Cc1cccc(C(F)(F)F)c1 [Example 41] | 50 | 67
CO/N=C(/C(=O)OC)c1cccc(C)c1CO/N=C(\C)C#Cc1cccc(C)c1 [Example 42] | 3 | 6
CO/N=C(/C(=O)OC)c1ccccc1CO/N=C(\C)C#Cc1cccc(C)c1 [Example 43] | 40 | 27
CNC(=O)/C(=N/OC)c1ccccc1CO/N=C(\C)C#Cc1cccc(C(F)(F)F)c1 [Example 44] | 1 | 5
CO/N=C(/C(=O)OC)c1cccc(C)c1CO/N=C(\C)C#Cc1ccccc1Br [Example 45] | 25 | 22
